Data: PubChem BioAssay AID1963963 (Molecular Pharmacology Branch, DTP, NCI, 2024)
Values belong to the compound of their own block, whether it stands above or below them.

Tested on: 958667-338-R-J2-PDC tumor spheroids viability
Assay: Anticancer human tumor 958667-338-R-J2-PDC patient-derived colon adenocarcinoma cell line growth inhibition [PI3K]
Settings: spheroids with HUVEC and MSC; for IC50: curve of first compound; for viability, T/C: stronger effect = lower value
How it was run: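 Viability of mixed-cell spheroids was determined after exposure to pairwise combinations, one partner being inavolisib, alpelisib, duvelisib or copanlisib. Highest tested concentration matched clinical Cmax where known and 10 microM where not, descending in half-log steps.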

[1] = second compound 0.0316 µM, first compound 0.0316 µM
[2] = second compound 0.0316 µM, first compound 0.1 µM
[3] = second compound 0.1 µM, first compound 0.0316 µM
[4] = second compound 0.1 µM, first compound 0.1 µM
[5] = second compound 0.316 µM, first compound 0.0316 µM
[6] = second compound 0.316 µM, first compound 0.1 µM
[7] = second compound 1 µM, first compound 0.0316 µM
[8] = second compound 1 µM, first compound 0.1 µM
[9] = second compound 0.0316 µM, first compound 0.316 µM
[10] = second compound 0.0316 µM, first compound 1 µM
[11] = second compound 0.0316 µM, first compound 3.16 µM
[12] = second compound 0.0316 µM, first compound 10 µM
[13] = second compound 0.1 µM, first compound 0.316 µM
[14] = second compound 0.1 µM, first compound 1 µM
[15] = second compound 0.1 µM, first compound 3.16 µM
[16] = second compound 0.1 µM, first compound 10 µM
[17] = second compound 0.316 µM, first compound 0.316 µM
[18] = second compound 0.316 µM, first compound 1 µM
[19] = second compound 0.316 µM, first compound 3.16 µM
[20] = second compound 0.316 µM, first compound 10 µM
[21] = second compound 1 µM, first compound 0.316 µM
[22] = second compound 1 µM, first compound 1 µM
[23] = second compound 1 µM, first compound 3.16 µM
[24] = second compound 1 µM, first compound 10 µM
[25] = second compound 3.16 µM, first compound 0.0316 µM
[26] = second compound 3.16 µM, first compound 0.1 µM
[27] = second compound 3.16 µM, first compound 0.316 µM
[28] = second compound 3.16 µM, first compound 1 µM
[29] = second compound 3.16 µM, first compound 3.16 µM
[30] = second compound 3.16 µM, first compound 10 µM
[31] = second compound 10 µM, first compound 0.0316 µM
[32] = second compound 10 µM, first compound 0.1 µM
[33] = second compound 10 µM, first compound 0.316 µM
[34] = second compound 10 µM, first compound 1 µM
[35] = second compound 10 µM, first compound 3.16 µM
[36] = second compound 10 µM, first compound 10 µM
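Note: spheroids exposed to compounds for seven days before readout.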

IC50 (second compound 0.00316 µM): 65.1 nM
IC50 (second compound 0.01 µM): 64.9 nM
IC50 (second compound 0.0316 µM): 43.6 nM
IC50 (second compound 0.1 µM): 52.5 nM
IC50 (second compound 0.316 µM): 28.7 nM
IC50 (second compound 1 µM): 2.71 nM
Compound: CC(C)n1nc(-c2ccc3oc(N)nc3c2)c2c(N)ncnc21 + CC(Nc1ccc2c(c1)OCCn1cc(N3C(=O)OCC3C(F)F)nc1-2)C(N)=O
viability, T/C (second compound 0.00316 µM, first compound 0.000316 µM): 103%
viability, T/C (second compound 0.00316 µM, first compound 0.001 µM): 120%
viability, T/C (second compound 0.00316 µM, first compound 0.00316 µM): 92.5%
viability, T/C (second compound 0.00316 µM, first compound 0.01 µM): 91.7%
viability, T/C (second compound 0.00316 µM, first compound 0.0316 µM): 80.8%
viability, T/C (second compound 0.00316 µM, first compound 0.1 µM): 33.3%
viability, T/C (second compound 0.01 µM, first compound 0.000316 µM): 109%
viability, T/C (second compound 0.01 µM, first compound 0.001 µM): 109%
viability, T/C (second compound 0.01 µM, first compound 0.00316 µM): 95.9%
viability, T/C (second compound 0.01 µM, first compound 0.01 µM): 94.7%
viability, T/C (second compound 0.01 µM, first compound 0.0316 µM): 71%
viability, T/C (second compound 0.01 µM, first compound 0.1 µM): 37.1%
viability, T/C (second compound 0.0316 µM, first compound 0.000316 µM): 99.5%
viability, T/C (second compound 0.0316 µM, first compound 0.001 µM): 74.3%
viability, T/C (second compound 0.0316 µM, first compound 0.00316 µM): 81.5%
viability, T/C (second compound 0.0316 µM, first compound 0.01 µM): 65%
viability, T/C [1]: 64.5%
viability, T/C [2]: 32.9%
viability, T/C (second compound 0.1 µM, first compound 0.000316 µM): 79.3%
viability, T/C (second compound 0.1 µM, first compound 0.001 µM): 86.9%
viability, T/C (second compound 0.1 µM, first compound 0.00316 µM): 85.9%
viability, T/C (second compound 0.1 µM, first compound 0.01 µM): 75.3%
viability, T/C [3]: 68%
viability, T/C [4]: 28.7%
viability, T/C (second compound 0.316 µM, first compound 0.000316 µM): 58.2%
viability, T/C (second compound 0.316 µM, first compound 0.001 µM): 59.8%
viability, T/C (second compound 0.316 µM, first compound 0.00316 µM): 66.2%
viability, T/C (second compound 0.316 µM, first compound 0.01 µM): 65.1%
viability, T/C [5]: 48.9%
viability, T/C [6]: 21.8%
viability, T/C (second compound 1 µM, first compound 0.000316 µM): 65.7%
viability, T/C (second compound 1 µM, first compound 0.001 µM): 53.8%
viability, T/C (second compound 1 µM, first compound 0.00316 µM): 45.6%
viability, T/C (second compound 1 µM, first compound 0.01 µM): 44.3%
viability, T/C [7]: 35.4%
viability, T/C [8]: 23.5%

IC50 (second compound 0.0316 µM): > 10000 nM
IC50 (second compound 0.1 µM): > 10000 nM
IC50 (second compound 0.316 µM): > 10000 nM
IC50 (second compound 1 µM): > 10000 nM
IC50 (second compound 3.16 µM): > 10000 nM
IC50 (second compound 10 µM): > 10000 nM
Compound: C[C@@H](NC(=O)c1ncnc(N)c1Cl)c1ncc(C(=O)Nc2cc(C(F)(F)F)c(Cl)cn2)s1 + CC(Nc1ncnc2nc[nH]c12)c1cc2cccc(Cl)c2c(=O)n1-c1ccccc1
viability, T/C [1]: 129%
viability, T/C [2]: 114%
viability, T/C [9]: 99.7%
viability, T/C [10]: 95.9%
viability, T/C [11]: 84.1%
viability, T/C [12]: 74.9%
viability, T/C [3]: 98%
viability, T/C [4]: 115%
viability, T/C [13]: 99.9%
viability, T/C [14]: 108%
viability, T/C [15]: 97.6%
viability, T/C [16]: 73.3%
viability, T/C [5]: 98.2%
viability, T/C [6]: 106%
viability, T/C [17]: 96.3%
viability, T/C [18]: 102%
viability, T/C [19]: 94.3%
viability, T/C [20]: 94.3%
viability, T/C [7]: 83.7%
viability, T/C [8]: 93.3%
viability, T/C [21]: 102%
viability, T/C [22]: 100%
viability, T/C [23]: 89.1%
viability, T/C [24]: 73.2%
viability, T/C [25]: 112%
viability, T/C [26]: 89%
viability, T/C [27]: 96.1%
viability, T/C [28]: 82.6%
viability, T/C [29]: 99.4%
viability, T/C [30]: 75.5%
viability, T/C [31]: 110%
viability, T/C [32]: 98.5%
viability, T/C [33]: 96.5%
viability, T/C [34]: 96.1%
viability, T/C [35]: 92.9%
viability, T/C [36]: 107%

IC50 (second compound 0.0316 µM): > 10000 nM
IC50 (second compound 0.1 µM): > 10000 nM
IC50 (second compound 0.316 µM): > 10000 nM
IC50 (second compound 1 µM): > 10000 nM
IC50 (second compound 3.16 µM): 8170 nM
IC50 (second compound 10 µM): 2360 nM
Compound: CC(C)NCC(C(=O)N1CCN(c2ncnc3c2C(C)CC3O)CC1)c1ccc(Cl)cc1 (stereo unspecified) + Cc1nc(NC(=O)N2CCCC2C(N)=O)sc1-c1ccnc(C(C)(C)C(F)(F)F)c1
viability, T/C [1]: 108%
viability, T/C [2]: 99.3%
viability, T/C [9]: 96.3%
viability, T/C [10]: 104%
viability, T/C [11]: 91.8%
viability, T/C [12]: 64.6%
viability, T/C [3]: 99.4%
viability, T/C [4]: 110%
viability, T/C [13]: 95.6%
viability, T/C [14]: 102%
viability, T/C [15]: 102%
viability, T/C [16]: 60.7%
viability, T/C [5]: 90.7%
viability, T/C [6]: 103%
viability, T/C [17]: 104%
viability, T/C [18]: 85.2%
viability, T/C [19]: 86.9%
viability, T/C [20]: 62.1%
viability, T/C [7]: 107%
viability, T/C [8]: 74.2%
viability, T/C [21]: 87.4%
viability, T/C [22]: 75.5%
viability, T/C [23]: 89.9%
viability, T/C [24]: 73.5%
viability, T/C [25]: 74.7%
viability, T/C [26]: 68.3%
viability, T/C [27]: 71.8%
viability, T/C [28]: 76.7%
viability, T/C [29]: 68.5%
viability, T/C [30]: 45.9%
viability, T/C [31]: 57.8%
viability, T/C [32]: 66.5%
viability, T/C [33]: 57.2%
viability, T/C [34]: 62.5%
viability, T/C [35]: 46.2%
viability, T/C [36]: 35.9%
